US12590054B2 (Board of Regents, The University of Texas System, priority 2021, dated 2026)
“Also recorded” adds a separate entry of the source.

What was measured:
naïve mice = assay: Abuse liability, conditioned place preference (CPP) paradigm; type: in vivo, mouse; details: 2-day conditioning
Procedure: Experimental approaches. […] Specifically, one day after measuring natural place preference, vehicle was be given in the morning, and the mouse was placed in its preferred chamber for 20 min. In the afternoon, test drugs were given, and the mouse was placed in its non-preferred chamber for 20 min. This conditioning procedure was repeated 2 times. One day after the last conditioning session, CPP for the drug-paired chamber was measured for 20 min.

human hepatic microsomes = details: pooled human liver microsomes, 50-200 μM substrate, 20 min, 37° C.
Procedure: The reaction was incubated for 20 min at 37° C. and terminated by the addition of 1.2 mL of cold acetonitrile.
Analytical method: An LC-MS/MS method for the quantification of EDDP, d3-EDDP and d6-EDDP was developed and validated. The samples were analyzed with an API 4000 triple quadrupole mass spectrometer coupled with an Agilent HPLC 1200 system (Applied Biosystems, Foster City, CA). […] Separation of EDDP, d3-EDDP and d6-EDDP was achieved by a Waters Symmetry C18 HPLC column at 45° C.

[1] = Tissue distribution after single i.v. injection in male CD-1 mice; details: for rank order of the exposure of the organs to the parent drug: i.v. administration
[2] = system: mice with plantar incision; assay: Postoperative pain model (plantar incision), von Frey paw withdrawal; details: for effect on postoperative mechanical hypersensitivity: post-operative treatment
Procedure: (§1) Animal models of pain. To model postoperative pain in mice, plantar incision was performed under isoflurane anesthesia. Specifically, a 4-8 mm incision was made through the skin, fascia, and muscle of the plantar side of one hind paw, longitudinally starting from the proximal edge of the heel. The skin was apposed with sutures (Fine Science Tools, Foster City, CA). The suture was removed at the end of postoperative day 2. To model neuropathic pain in mice, a surgery was performed to ligate the fifth lumbar (L5) spinal nerve (spinal nerve ligation, SNL).
(§2) Behavioral testing. Mechanical pain sensitivity after plantar incision or SNL was assessed by measuring paw withdrawal behaviors in response to von Frey filament (VFF) probing. A mouse was placed in a plastic chamber on top of a mesh screen platform. The VFF of 0.98 mN was applied perpendicularly to the hind paw. […] The percent of withdrawal responses out of the ten trials was recorded.
(§3) Statistical analysis. We used a generalized linear mixed model to analyze the number of withdrawals out of 10 trials (binomial distribution) repeatedly measured at multiple time points (AR1 covariance structure) with random intercepts for subject (i.e., mouse) variances. Degrees of freedom were allowed to vary across tests by Satterthwaite approximation.

[3] = system: mice with spinal nerve ligation (SNL); assay: Neuropathic pain model (spinal nerve ligation, SNL), von Frey paw withdrawal
Procedure: as §1, §2, §3

Swiss mice = details: intraperitoneally (i.p.); cited from earlier work
[4] = Plasma pharmacokinetics after single i.v. injection in male CD-1 mice; details: parent drug in plasma, 2.0 mg/kg i.v.
[5] = 3 mg/kg i.p., once daily for 4 days

For `[2H]C([2H])([2H])CC(=O)C(CC(C)N(C([2H])([2H])[2H])C([2H])([2H])[2H])(c1ccccc1)c1ccccc1` (racemic) [d9-methadone], the “conditioned place preference for the drug-paired chamber” value (“conditioned place preference” for short) (naïve mice) was “did not develop conditioned place preference; also recorded: did not develop CPP; also recorded: did not show any apparent conditioned place preference”, the “biotransformation (N-demethylation) rate compared to the non-deuterated substrate” value (human hepatic microsomes) was “further decreased the rate” and the “rank order of the exposure of the organs to the parent drug” value [1] was “lungs>kidneys≈liver>spleen>heart>brain”. For the same compound, the Kp ([1]; male, CD-1, mouse, in vivo, iv, 2 mg/kg) was 0.35 ± 0.12, the “postoperative mechanical hypersensitivity vs methadone-treated mice, next day” value ([2]; intra-operative treatment, 3 mg/kg i.p.) was “no difference” and the “postoperative mechanical hypersensitivity vs methadone-treated mice, day of surgery (2 hr, 4 hr)” value ([2]; intra-operative treatment, 3 mg/kg i.p. before plantar incision) was “lower postoperative mechanical hypersensitivity”. The “development of analgesic tolerance” value ([2]; once daily for 4 days, 3 mg/kg i.p.) was “no development of the apparent analgesic tolerance”, the “effect on postoperative mechanical hypersensitivity” value [2, 5] was “alleviated hypersensitivity after each systemic injection” and the “Cohen's d, % withdrawals before and after treatment” value ([2]; postoperative treatment, paired comparison) was > 20. The “Cohen's d between methadone and d9-methadone groups, % of withdrawals 4 hours post-incision” value ([2]; preliminary intra-operative treatment) was 2.1, the “effect on neuropathic pain (tactile allodynia)” value ([3]; 3 mg/kg i.p. once daily for 3 days after SNL) was “effectively alleviated this neuropathic pain after each injection; also recorded: effectively inhibited this neuropathic pain after each injection” and the “development of analgesic tolerance” value ([3]; once daily for 3 days, 3 mg/kg i.p.) was “no development of the apparent analgesic tolerance”.
For `CCC(=O)C(CC(C)N(C)C)(c1ccccc1)c1ccccc1` (racemic) [methadone, 6-(dimethylamino)-4,4-diphenylheptan-3-one], the “conditioned place preference” value (naïve mice) is listed as “developed CPP; also recorded: relatively weaker conditioned place preference”, the LD50 (Swiss mice) is listed as 41 mg/kg and the “rank order of the exposure of the organs to the parent drug” value [1] is listed as “kidneys≈lungs>spleen>liver>heart>brain”. For the same compound, the “effect on postoperative mechanical hypersensitivity” value [2, 5] was “unable to reduce”, the AUC0-8 h [4] was 0.414 ± 0.067 µg·h/mL and the “AUC0-∞” value [4] was 0.436 ± 0.075 µg·h/mL. For the same compound, the Tmax [4] was 0.08 ± 0^ h and the Cmax ([4]; mean ± s.d.) was 0.521 ± 0.055 µg/mL.
In the case of `CCC1=[N+](C)C(C)CC1(c1ccccc1)c1ccccc1` (stereo not drawn) [EDDP, 2-ethylidine-1,5-dimethyl-3,3-diphenylpyrrolidine], the “rank order of the exposure of the organs to the metabolite” value ([1]; i.v. administration of the parent drug) is reported as “lungs>liver>kidney≈heart>spleen”.
For `C=CC[N+]1(C)CC[C@]23c4c5ccc(O)c4O[C@H]2C(=O)CC[C@@]3(O)[C@H]1C5` (stereo partly drawn) [NLXM, naloxone methiodide, reference compound], the “effect of NLXM on the relief of postoperative pain by d9-methadone” value ([2]; NLXM 10 mg/kg i.p. 30 minutes before d9-methadone) was “completely blocked the effect of d9-methadone”.
With `[2H]C([2H])([2H])CC(=O)C(CC(C)N(C)C)(c1ccccc1)c1ccccc1` (stereo not drawn) [d3-methadone, reference compound] the “biotransformation (N-demethylation) rate compared to the non-deuterated substrate” value (human hepatic microsomes) was “significantly decreased the biotransformation”.
In the case of `CN1CC[C@]23c4c5ccc(O)c4O[C@H]2[C@@H](O)C=C[C@H]3[C@H]1C5` [morphine], the “conditioned place preference” value (naïve mice) is reported as “spent significantly more time in the bright chamber; also recorded: developed CPP”.
